Square brackets hold non-standard residues; d marks the D form. Peptide text beside a SMILES is read from it. * marks the point of attachment. Ala(1H-tetrazol-5-yl) = N[C@@H](Cc1nnn[nH]1)C(=O)O; Ms = CS(=O)(=O)*
Legend:
[1] = Peptide stability test, Tris buffer (pH 7.0), 60° C. storage, HPLC remaining rate; format: physicochemical; conditions: 100 μM in Tris buffer pH 7.0
Procedure, shortened: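 Peptides at 100 μM in Tris buffer (pH 7.0) stored 1 or 2 weeks at 60° C.; unstored sample kept at −30° C. as initial reference. Remaining peptide quantified by reversed-phase HPLC at 220 nm (formic acid/acetonitrile gradient, 40° C. column), as water-corrected remaining rate.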

[2] = system: rat trigeminal nerve cells; assay: Axon elongation effect on cultured rat trigeminal nerve cells; format: cell-based; conditions: 1 μM peptide, 24 hours; N=8; Dunnett's test vs control P<0.001; FIG. 5
Method: Rats (Sic: Sprague-Dawley, 17-day-old, including female and male) purchased from Japan SLC, Inc. were euthanized by carbon dioxide gas inhalation and the trigeminal ganglion was harvested. The harvested trigeminal ganglion was washed with Hanks' balanced salt solution (HBSS) and then treated with collagenase A (Roche) for 30 minutes at 37° C. A neuron dispersion (Wako) was then used according to protocol for dispersion of the cells. Debris removal solution (Miltenyi biotec) and Myelin removal beads II (Miltenyi biotec) were used according to protocol to remove the debris and myelin. After suspending the isolated trigeminal nerve cells in culture solution, they were seeded onto a polylysine/laminin-coated 8-well chamber slide (Corning) at 2.5×10^3 cells/well. The culture solution used was Neurobasal-A containing B27 supplement (final concentration: 2%) and GlutaMAX (final concentration: 2 mM) and penicillin/streptomycin (final concentration: 1%). The culturing conditions were a carbon dioxide concentration of 5%, an air concentration of 95%, a humidity of 100% and a temperature of 37° C. […] The control was replaced with peptide-free culture solution. Culture medium replacement was followed by further culturing for 24 hours.
The culture medium was replaced with peptide-containing culture solution, and the rat trigeminal nerve cells cultured for 24 hours were immersed in a 2% paraformaldehyde solution at room temperature for 20 minutes for fixing. The cells were washed with PBS, and then 2% bovine serum albumin containing 0.1% TritonX-100 was added and reaction was conducted for 30 minutes. After washing with PBS, it was reacted with phospho-neurofilament H antibody (Merck, MAB1592-C) specifically recognizing neurofilaments forming the neuron bodies and neurites, for 1 hour at room temperature. After reaction for 1 hour, a fluorescent-labeled secondary antibody (Invitrogen Corp., #A-11031) was reacted at room temperature for 1 hour for fluorescent staining of the sample, and the stained cells were observed under a fluorescent microscope. The stained cell image was captured as an image from the fluorescent microscope and loaded into a computer.
In order to evaluate the extent of neurite formation by the rat trigeminal nerve cells, cells with neurites having lengths of at least twice the cell body diameter in the stained cell image in the computer were counted as neurite-forming cells, and the percentage (%) of this number of cells over the total cell count was calculated (Otori Y. Wei J Y, Barnstable C J. Invest. Ophthalmol Vis Sci (1998) 39, 972-981). The significant difference with respect to the control was determined by Dunnett's test (P<0.001).

PAC1R = target: T1, PAC1R (Homo sapiens, UniProt P41586); assay: cAMP assay in PAC1R high-expressing CHO-K1 cell line; format: cell-based; conditions: Table 12; cAMP inducing effect, CHO-K1 PAC1R high-expressing cells
T1 construct: host or cells: CHO-K1
T1 sequence (P41586 21-468): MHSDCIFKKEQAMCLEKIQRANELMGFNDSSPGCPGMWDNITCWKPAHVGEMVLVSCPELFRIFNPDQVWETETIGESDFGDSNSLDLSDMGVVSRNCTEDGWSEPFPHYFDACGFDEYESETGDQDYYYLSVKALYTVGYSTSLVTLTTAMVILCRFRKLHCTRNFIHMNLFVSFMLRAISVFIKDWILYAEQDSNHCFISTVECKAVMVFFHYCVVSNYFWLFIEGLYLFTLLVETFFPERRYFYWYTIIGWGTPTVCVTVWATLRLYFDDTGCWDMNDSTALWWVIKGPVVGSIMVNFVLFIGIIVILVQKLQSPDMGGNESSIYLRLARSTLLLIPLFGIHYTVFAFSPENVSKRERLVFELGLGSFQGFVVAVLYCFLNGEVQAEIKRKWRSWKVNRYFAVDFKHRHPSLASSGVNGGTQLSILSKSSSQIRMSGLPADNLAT
Method: The cells were cultured for 18 to 24 hours at 37° C. in a 5% C02 incubator, adhering the cells to the plate. […] A 5-fold dilution series was then prepared with the same Cell assay buffer and used in an assay. The cAMP assay was carried out using a Hit Hunter cAMP Assay for Biologics kit (product of DiscoveRx, Cat. No. 90-0075LM25), according to the included kit instructions. […] Next, the culture medium was removed from the CHO-K1 cell culture plate, washing was performed with PBS, and the peptide-cAMP antibody liquid mixtures were added to the cells and incubated for 30 minutes under a 5% CO2 atmosphere at 37° C. A working detection solution was then added and the culture plate was shielded from light with aluminum foil and incubated at 25° C. for 1 hour. After incubation, Solution A was added and the culture plate was shielded from light with aluminum foil and then incubated at 25° C. for 3 hours. […] The obtained value for the Relative Luminescence Unit (RLU) was analyzed with GraphPad Prism Ver 6.05 (product of Graph Pad) and the EC50 value was calculated for each peptide. […] FIG. 2 and Table 11. […] A 5-fold dilution series was then prepared with the same Cell assay buffer and used in an assay. […] A 5-fold dilution series was then prepared with the same Cell assay buffer and used in an assay.

PAC1 receptor = target: T2, PAC1 receptor (UniProt P41586 21-468, limits assumed); assay: cell-based or functional assay
T2 sequence (looked up): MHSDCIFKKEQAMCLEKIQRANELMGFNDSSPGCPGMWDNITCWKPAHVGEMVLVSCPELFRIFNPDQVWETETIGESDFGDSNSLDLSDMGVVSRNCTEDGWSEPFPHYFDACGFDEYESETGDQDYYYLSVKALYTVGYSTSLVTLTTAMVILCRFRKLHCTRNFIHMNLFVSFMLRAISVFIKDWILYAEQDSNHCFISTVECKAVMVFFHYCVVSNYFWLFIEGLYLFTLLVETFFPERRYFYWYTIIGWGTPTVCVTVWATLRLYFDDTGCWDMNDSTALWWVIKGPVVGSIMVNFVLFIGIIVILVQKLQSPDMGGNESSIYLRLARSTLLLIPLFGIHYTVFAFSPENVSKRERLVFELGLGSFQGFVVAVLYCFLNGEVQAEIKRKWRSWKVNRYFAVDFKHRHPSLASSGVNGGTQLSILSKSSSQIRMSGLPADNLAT

VPAC1 receptor = target: T3, VPAC1 receptor (UniProt P32241 31-457, limits assumed); assay: cell-based or functional assay
T3 sequence (looked up): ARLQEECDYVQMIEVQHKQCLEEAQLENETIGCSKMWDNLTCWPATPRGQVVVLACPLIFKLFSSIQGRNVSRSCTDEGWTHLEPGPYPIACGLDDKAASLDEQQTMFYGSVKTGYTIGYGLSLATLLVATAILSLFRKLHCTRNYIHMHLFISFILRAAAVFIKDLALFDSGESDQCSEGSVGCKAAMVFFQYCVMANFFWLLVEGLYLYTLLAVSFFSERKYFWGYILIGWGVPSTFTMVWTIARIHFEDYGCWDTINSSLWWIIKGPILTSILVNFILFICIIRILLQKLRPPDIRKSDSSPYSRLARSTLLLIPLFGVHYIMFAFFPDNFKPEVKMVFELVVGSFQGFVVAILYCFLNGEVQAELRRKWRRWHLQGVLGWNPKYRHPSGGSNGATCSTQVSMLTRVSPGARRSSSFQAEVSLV

Molecule | axon elongation (percentage of neurite-forming cells) [2] | EC50 (PAC1R), cAMP inducing effect (PAC1 receptor) | EC50 (VPAC1R), cAMP inducing effect (VPAC1 receptor) | also measured
CC[C@H](C)[C@H](NC(=O)[C@H](C)NC(=O)[C@H](Cc1nnn[nH]1)NC(=O)[C@H](CO)NC(=O)[C@H](Cc1c[nH]cn1)NS(C)(=O)=O)C(=O)N[C@@H](Cc1ccccc1)C(=O)N[C@H](C(=O)N[C@@H](Cc1nnn[nH]1)C(=O)N[C@@H](CO)C(=O)N[C@@H](Cc1ccc(O)cc1)C(=O)N[C@@H](CO)C(=O)N[C@@H](CCCNC(=N)N)C(=O)N[C@@H](Cc1ccc(O)cc1)C(=O)N[C@@H](CCCNC(=N)N)C(=O)N[C@@H](CCCCN)C(=O)N[C@@H](CCC(N)=O)C(=O)N[C@@H](C)C(=O)N[C@@H](C)C(=O)N[C@H](C(=O)N[C@@H](CCCCN)C(=O)N[C@@H](CCCCN)C(=O)N[C@@H](Cc1ccc(O)cc1)C(=O)N[C@@H](CC(C)C)C(=O)N[C@@H](C)C(=O)N[C@@H](C)C(=O)N[C@H](C(=O)N[C@@H](CC(C)C)C(N)=O)C(C)C)C(C)C)[C@@H](C)O [Peptide 31] (Ms-HS[Ala(1H-tetrazol-5-yl)]AIFT[Ala(1H-tetrazol-5-yl)]SYSRYRKQAAVKKYLAAVL-NH2) | exhibited axon elongation-promoting effects |  |  | remaining rate after correction for water, 60° C., 2 weeks preservation ([1]; Table 7-2): 90.1%
CC[C@H](C)[C@H](NC(=O)CNC(=O)[C@H](Cc1nnn[nH]1)NC(=O)[C@H](CO)NC(=O)[C@H](Cc1c[nH]cn1)NC(C)=O)C(=O)N[C@@H](Cc1ccccc1)C(=O)N[C@H](C(=O)N[C@@H](Cc1nnn[nH]1)C(=O)N[C@@H](CO)C(=O)N[C@@H](Cc1ccc(O)cc1)C(=O)N[C@@H](CO)C(=O)N[C@@H](CCCNC(=N)N)C(=O)N[C@@H](Cc1ccc(O)cc1)C(=O)N[C@@H](CCCNC(=N)N)C(=O)N[C@@H](CCCCN)C(=O)N[C@@H](CCC(N)=O)C(=O)N[C@@H](C)C(=O)N[C@@H](C)C(=O)N[C@H](C(=O)N[C@@H](CCCCN)C(=O)N[C@@H](CCCCN)C(=O)N[C@@H](Cc1ccc(O)cc1)C(=O)N[C@@H](CC(C)C)C(=O)N[C@@H](C)C(=O)N[C@@H](C)C(=O)N[C@H](C(=O)N[C@@H](CC(C)C)C(N)=O)C(C)C)C(C)C)[C@@H](C)O [Peptide 18] (Ac-HS[Ala(1H-tetrazol-5-yl)]GIFT[Ala(1H-tetrazol-5-yl)]SYSRYRKQAAVKKYLAAVL-NH2) | exhibited axon elongation-promoting effects |  |  | remaining rate after correction for water, 60° C., 1 week preservation ([1]; Table 7): 96.7%; remaining rate after correction for water, 60° C., 2 weeks preservation ([1]; Table 7): 90.6%; EC50 (PAC1R): 61 pM
CC[C@H](C)[C@H](NC(=O)CNC(=O)[C@H](Cc1nnn[nH]1)NC(=O)[C@H](CO)NC(=O)[C@H](Cc1c[nH]cn1)NS(C)(=O)=O)C(=O)N[C@@H](Cc1ccccc1)C(=O)N[C@H](C(=O)N[C@@H](Cc1nnn[nH]1)C(=O)N[C@@H](CO)C(=O)N[C@@H](Cc1ccc(O)cc1)C(=O)N[C@@H](CO)C(=O)N[C@@H](CCCNC(=N)N)C(=O)N[C@@H](Cc1ccc(O)cc1)C(=O)N[C@@H](CCCNC(=N)N)C(=O)N[C@@H](CCCCN)C(=O)N[C@@H](CCC(N)=O)C(=O)N[C@@H](CC(C)C)C(=O)N[C@@H](C)C(=O)N[C@H](C(=O)N[C@@H](CCCCN)C(=O)N[C@@H](CCCCN)C(=O)N[C@@H](Cc1ccc(O)cc1)C(=O)N[C@@H](CC(C)C)C(=O)N[C@@H](C)C(=O)N[C@@H](C)C(=O)N[C@H](C(=O)N[C@@H](CC(C)C)C(N)=O)C(C)C)C(C)C)[C@@H](C)O [Peptide 12] (Ms-HS[Ala(1H-tetrazol-5-yl)]GIFT[Ala(1H-tetrazol-5-yl)]SYSRYRKQLAVKKYLAAVL-NH2) | exhibited axon elongation-promoting effects |  |  | remaining rate after correction for water, 60° C., 1 week preservation ([1]; Table 7): 97.0%; remaining rate after correction for water, 60° C., 2 weeks preservation ([1]; Table 7): 93.6%
HSXGIFTXSYSRYRKQXAVKKYLAAVL (N-terminal acetyl (Ac-); Tz (aspartic acid with carboxyl group replaced by tetrazole) at positions 3 and 8; norleucine at position 17; C-terminal amide (NH2)) [Peptide 8] |  | 72 pM | 46 pM | 
HSXGIFTXSYSRYRKQLAVKKYLAAVL (N-terminal acetyl (Ac-); Tz (aspartic acid with carboxyl group replaced by tetrazole) at positions 3 and 8; C-terminal amide (NH2)) [Peptide 9] |  | 63 pM | 43 pM | 
HSXGIFTXSYSRYRKQXAVKKYLAAVL (Tz (aspartic acid with carboxyl group replaced by tetrazole) at positions 3 and 8; norleucine at position 17; C-terminal amide (NH2)) [Peptide 6] |  | 79 pM | 93 pM | 
HSXGIFTXSYSRYRKQLAVKKYLAAVL (Tz (aspartic acid with carboxyl group replaced by tetrazole) at positions 3 and 8; C-terminal amide (NH2)) [Peptide 7] |  | 112 pM | 114 pM | 

Source: patent publication US20220202905A1, “COMPOSITION FOR PREVENTING OR TREATING NEUROTROPHIC KERATITIS WHICH CONTAINS PACAP PEPTIDE OR STABILIZED PACAP PEPTIDE” (SENJU PHARMACEUTICAL CO., LTD., priority 2019, published 2022)
